Where a SMILES comes first, the peptide text is derived from it. Bridges are numbered along the chain shown (N, C = ends). [ ]: non-standard residue; d: D form. The star is where a group is joined. FITC = O=C1OC2(c3ccc(O)cc3Oc3cc(O)ccc32)c2ccc(NC(=S)*)cc21; R8 = C=CCCCCCC[C@@](C)(N)C(=O)O; S5 = C=CCCC[C@](C)(N)C(=O)O; βAla = NCCC(=O)O
Experiments:
HIV-1 IIIB [1] = type: cell-based
Procedure: The inhibitory activity of the constrained peptide described in Example 1 on infection by laboratory-adapted HIV-1 strains was determined as described in Jiang et al. (1991).

HIV-IIIB = experiment: Viral re-infection assay: infectivity of virions released by treated HIV-1 infected MT-2 cells; type: cell-based; details: for infectivity respect to the control: about 7 μM
Procedure: The infectivity potential of the virions released by HIV-1 infected MT-2 cells treated with different concentrations of small stapled peptides. […] Control cells were untreated or treated with 1 ug/ml of AMD3100 (CXCR-4 receptor inhibitor). Following overnight incubation the medium was completely removed and replaced with fresh medium. On the fourth day post-infection the supernatants were collected. One aliquot of each sample was mixed 1:1 with a solution of 5% Triton X-100 for p24 quantification, and stored at 4° C., another aliquot was immediately frozen at −80° C. and used to compare the infectivity of the viral particles released by treated cells to the viral particles released by untreated cells. Following p24 quantification by sandwich-ELISA MT-2 cells were infected with viral samples normalized for the p24 content to calculate the TCID50. Following overnight incubation ¾ of the medium containing the inoculum was replaced with fresh medium. On the fourth day post infection supernatants were collected for p24 quantification and the TCID50 was calculated by the Spearman-Karber statistical method.
Therefore, to infect MT-2 cells we used the maximum quantities of supernatants possible.

HIV-1 IIIB [2] = experiment: Western blot of p24 and p55 after treatment of HIV-1 IIIB infected MT-2 cells; type: cell-based; details: anti-p24 mAb, graded concentrations, vs positive untreated control
Procedure: Control cells were uninfected MT-2 or infected and untreated MT-2. Following overnight incubation the culture supernatant was completely removed and replaced with fresh medium. On the fourth day post-infection cells and virus supernatants were harvested. The supernatants were filtered and ultra-centrifuged through a 20% sucrose cushion for 2 hr at 27,000 rpm with a SW28 rotor to concentrate the viral particles. Viral pellets were slowly re-suspended and lysed. Cells were collected and processed for protein extraction. […] Proteins were then visualized by Western Blot and immuno-detected with HIV-1 anti-p24 gag mAb.
Same amounts of viral and cellular proteins were immunodetected with an anti-p24 mAb.

[3] = Circular dichroism, secondary structure in solution; type: physicochemical; details: 25° C., 1×PBS, 1-20% acetonitrile, 100 μM peptide
Procedure: We used circular dichroism (CD) to characterize the secondary structure of NYAD-1 and CAI in the uncomplexed state in solution. CD spectra were obtained on a Jasco J-715 Spectropolarimeter (Jasco Inc.) at 20° C. using the standard measurement parameters in Tris-HCl buffer (20 mM Tris, pH 8.0) in the presence of 1-15% (v/v) acetonitrile at a final concentration of 125-500 μM. In all the samples, the final concentrations of peptides and salt were always the same, and the spectra were corrected by subtracting the CD spectra of the appropriate reference solvent. Percent α-helix was calculated from molar ellipticity value at 222 nm.
The CD spectra were measured at 25° C. in 1×PBS in the presence of 1-20% (v/v) acetonitrile at a final concentration of peptide of 100 μM.
We used CD spectroscopy to determine the secondary structure characteristics of the stapled peptide NYAD-36. The corresponding linear peptide, NYAD-41, was used as control.

CTDM184A/W185A = CTDM184A/W185A (Human immunodeficiency virus type 1 group M subtype B, UniProt P04591, M317A/W316A); experiment: Isothermal titration calorimetry; parameters: species or system HIV-1; details: ITC, 25 mM sodium phosphate buffer (pH 7.3), single-binding model
Procedure: In a typical experiment, the ITC injection syringe was loaded with 625 μM CTDM184A/W185A protein dissolved in the dialysis buffer. […] Typically titrations consisted of 27 injections of 10 μl into the calorimetric cell, with 240-s equilibration between injections. The thermodynamic parameters were obtained and data were analysed using MicroCal Origin 7.0 software.

[4] = tested on: HIV-1 gag-mStrawberry fusion protein; experiment: Direct colocalization with gag by confocal microscopy; type: cell-based; details: 293T cells transfected with pEF6A-gag-mStrawberry; near the plasma membrane
Procedure: A direct colocalization study was performed by transfecting 293T cells with pEF6A-gag-mStrawberry for 4 hr and then washing cells once with PBS. A serum-free or serum-containing medium containing FITC-conjugated peptide was added for another 20 hr culture. After three washes, the cells were examined and imaged under a Zeiss LSM510 laser scanning confocal microscope.

N-terminal CA (N-CA) = N-terminal CA (N-CA) (Human immunodeficiency virus type 1 group M subtype B, UniProt P04591); details: read-out: affinity (Kd) to N-terminal CA (N-CA); cited from earlier work

Compound: CC[C@H](C)[C@H](N)C(=O)N[C@@H](CO)C(=O)N[C@@H](Cc1ccccc1)C(=O)N[C@]1(C)CCCCCC/C=C\CCC[C@@](C)(C(=O)N[C@@H](CCCNC(=N)N)C(N)=O)NC(=O)[C@H](Cc2ccc(O)cc2)NC(=O)[C@H](Cc2ccc(O)cc2)NC(=O)[C@H](CCC(N)=O)NC(=O)[C@H](CC(C)C)NC(=O)[C@H](Cc2c[nH]c3ccccc23)NC(=O)[C@H](CCC(=O)O)NC1=O [NYAD-33] (H-ISF[R8]EWLQYY[S5]R-NH2; staple (Z) 4-11; N-terminus and C-terminus assumed)
- IC50 (HIV-1 IIIB [1]): 3.37 ± 0.06 µM
- viral infectivity of particles released by treated cells (HIV-IIIB; 7 μM): very little to no viral infectivity
- viral infectivity of particles released by treated cells (HIV-IIIB; 14 μM): very little to no viral infectivity
- infectivity respect to the control (HIV-IIIB): 25%

Compound: CC[C@H](C)[C@H](N)C(=O)N[C@@H](CO)C(=O)N[C@@H](Cc1ccccc1)C(=O)N[C@@]1(C)CCC/C=C\CCC[C@@](C)(C(=O)N[C@@H](Cc2ccc(O)cc2)C(=O)N[C@@H](Cc2ccc(O)cc2)C(=O)NCC(=O)N[C@@H](CCC(=O)O)C(=O)N[C@@H](CO)C(=O)NCC(=O)N[C@@H](CO)C(N)=O)NC(=O)[C@H](CC(C)C)NC(=O)[C@H](CC(C)C)NC(=O)[C@H](CCC(=O)O)NC1=O [NYAD-35] (H-ISF[S5]ELL[S5]YYGESGS-NH2; staple (Z) 4-8; N-terminus and C-terminus assumed)
- IC50 (HIV-1 IIIB [1]): 4.51 ± 0.14 µM

Compound: c1cc(CN2CCCNCCNCCCNCC2)ccc1CN1CCCNCCNCCCNCC1 [AMD3100, reference compound]
- viral infectivity of particles released by treated cells (HIV-IIIB; 1 ug/ml): very little to no viral infectivity

Compound: CC[C@H](C)[C@H](N)C(=O)N[C@@H](CO)C(=O)N[C@@H](Cc1ccccc1)C(=O)N[C@@]1(C)CCC/C=C\CCC[C@@](C)(C(=O)N[C@@H](Cc2ccc(O)cc2)C(=O)N[C@@H](Cc2ccc(O)cc2)C(=O)NCC(=O)N[C@@H](CCC(=O)O)C(=O)N[C@@H](CCCCN)C(N)=O)NC(=O)[C@H](CC(C)C)NC(=O)[C@H](CC(C)C)NC(=O)[C@H](CCC(=O)O)NC1=O [NYAD-24] (H-ISF[S5]ELL[S5]YYGEK-NH2; staple (Z) 4-8; N-terminus and C-terminus assumed)
- IC50 (HIV-1 IIIB [1]): 13.8 ± 3.57 µM

Compound: CC[C@H](C)[C@H](N)C(=O)N[C@@H](CO)C(=O)N[C@@H](Cc1ccccc1)C(=O)N[C@@]1(C)CCC/C=C\CCC[C@@](C)(C(=O)N[C@@H](Cc2ccc(O)cc2)C(=O)N[C@@H](Cc2ccc(O)cc2)C(=O)NCC(=O)N[C@@H](CCC(=O)O)C(=O)N[C@@H](CO)C(=O)NCC(=O)N[C@@H](CO)C(N)=O)NC(=O)[C@H](CC(C)C)NC(=O)[C@H]([C@@H](C)CC)NC(=O)[C@H](CCC(=O)O)NC1=O [NYAD-37] (H-ISF[S5]EIL[S5]YYGESGS-NH2; staple (Z) 4-8; N-terminus and C-terminus assumed)
- IC50 (HIV-1 IIIB [1]): 8 ± 0.36 µM
- viral infectivity of particles released by treated cells (HIV-IIIB; 15 μM): very little to no viral infectivity
- viral infectivity of particles released by treated cells (HIV-IIIB; 30 μM): very little to no viral infectivity
- p24 and p55 levels in the cellular preparation (HIV-1 IIIB [2]): dose-dependent decrease
- p24 and p55 levels in the viral preparation (viral lysates) (HIV-1 IIIB [2]): dose-dependent decrease

Compound: CC[C@H](C)[C@H](N)C(=O)N[C@H](C(=O)N[C@@H](Cc1ccccc1)C(=O)N[C@@]1(C)CCC/C=C\CCC[C@@](C)(C(=O)N[C@@H](Cc2ccc(O)cc2)C(=O)N[C@@H](Cc2ccc(O)cc2)C(=O)NCC(=O)N[C@@H](CCCNC(=N)N)C(N)=O)NC(=O)[C@H](CC(C)C)NC(=O)[C@H](Cc2c[nH]c3ccccc23)NC(=O)[C@H](CC(=O)O)NC1=O)[C@@H](C)O [NYAD-31] (H-ITF[S5]DWL[S5]YYGR-NH2; staple (Z) 4-8; N-terminus and C-terminus assumed)
- IC50 (HIV-1 IIIB [1]): 13.5 ± 1.4 µM

Compound: CC[C@H](C)[C@H](N)C(=O)N[C@@H](CO)C(=O)N[C@@H](Cc1ccccc1)C(=O)N[C@@]1(C)CCC/C=C\CCC[C@@](C)(C(=O)N[C@@H](Cc2ccc(O)cc2)C(=O)N[C@@H](Cc2ccc(O)cc2)C(=O)NCC(=O)N[C@@H](CCCNC(=N)N)C(N)=O)NC(=O)[C@H](CC(C)C)NC(=O)[C@H](CC(C)C)NC(=O)[C@H](CCC(=O)O)NC1=O [NYAD-15] (H-ISF[S5]ELL[S5]YYGR-NH2; staple (Z) 4-8; N-terminus and C-terminus assumed)
- IC50 (HIV-1 IIIB [1]): 4.86 ± 1.55 µM
- p24 and p55 levels in the cellular preparation (HIV-1 IIIB [2]): dose-dependent decrease
- p24 and p55 levels in the viral preparation (viral lysates) (HIV-1 IIIB [2]): dose-dependent decrease

Compound: CC[C@H](C)[C@H](N)C(=O)N[C@@H](CO)C(=O)N[C@@H](Cc1ccccc1)C(=O)N[C@]1(C)CCCCCC/C=C\CCC[C@@](C)(C(=O)N[C@@H](CCC(=O)O)C(=O)N[C@@H](CO)C(=O)NCC(=O)N[C@@H](CO)C(N)=O)NC(=O)[C@H](Cc2ccc(O)cc2)NC(=O)[C@H](Cc2ccc(O)cc2)NC(=O)[C@H](CC(=O)O)NC(=O)[C@H](CC(C)C)NC(=O)[C@H](CC(C)C)NC(=O)[C@H](CCC(=O)O)NC1=O [NYAD-36] (H-ISF[R8]ELLDYY[S5]ESGS-NH2; staple (Z) 4-11)
- IC50 (HIV-1 IIIB [1]): 1.5 ± 0.17 µM
- secondary structure by CD [3]: α-helical structure
- viral infectivity of particles released by treated cells (HIV-IIIB; 6.8 μM): very little to no viral infectivity
- viral infectivity of particles released by treated cells (HIV-IIIB; 13.5 μM): very little to no viral infectivity
- infectivity respect to the control (HIV-IIIB): 7.7%
- p24 and p55 levels in the cellular preparation (HIV-1 IIIB [2]): the same decrease was not detected
- p24 and p55 levels in the viral preparation (viral lysates) (HIV-1 IIIB [2]): dose-dependent decrease
- ΔH (CTDM184A/W185A): −8.4 (±0.4) Kcal/mol
- solubility: < 100 µM

Compound: CC[C@H](C)[C@H](N)C(=O)N[C@H](C(=O)N[C@@H](Cc1ccccc1)C(=O)N[C@@]1(C)CCC/C=C\CCC[C@@](C)(C(=O)N[C@@H](Cc2ccc(O)cc2)C(=O)N[C@@H](Cc2ccc(O)cc2)C(=O)NCC(=O)N[C@@H](CCC(=O)O)C(=O)N[C@@H](CCCCN)C(N)=O)NC(=O)[C@H](CC(C)C)NC(=O)[C@H]([C@@H](C)CC)NC(=O)[C@H](CC(=O)O)NC1=O)[C@@H](C)O [NYAD-23] (H-ITF[S5]DIL[S5]YYGEK-NH2; staple (Z) 4-8; N-terminus and C-terminus assumed)
- IC50 (HIV-1 IIIB [1]): 9.1 ± 0.74 µM
- p24 and p55 levels in the cellular preparation (HIV-1 IIIB [2]): dose-dependent decrease
- p24 and p55 levels in the viral preparation (viral lysates) (HIV-1 IIIB [2]): dose-dependent decrease

Compound: FITC-conjugated NYAD-1: NYAD-1 N-terminally derivatized with β-Ala and FITC ({FITC-βAla}-ITF[S5]DLL[S5]YYGP-NH2; staple 4-8; also: X4, X8 also described as (S)-2-(2'-pentenyl)alanine)
- colocalization with gag-mStrawberry [4]: significant fraction colocalized

Compound: CC[C@H](C)[C@H](N)C(=O)N[C@@H](CO)C(=O)N[C@@H](Cc1ccccc1)C(=O)N[C@@]1(C)CCC/C=C\CCC[C@@](C)(C(=O)N[C@@H](Cc2ccc(O)cc2)C(=O)N[C@@H](Cc2ccc(O)cc2)C(=O)NCC(=O)N[C@@H](CCCNC(=N)N)C(=O)N[C@@H](CO)C(=O)NCC(=O)N[C@@H](CO)C(N)=O)NC(=O)[C@H](CC(C)C)NC(=O)[C@H](CC(C)C)NC(=O)[C@H](CCC(=O)O)NC1=O [NYAD-34] (H-ISF[S5]ELL[S5]YYGRSGS-NH2; staple (Z) 4-8; N-terminus and C-terminus assumed)
- IC50 (HIV-1 IIIB [1]): 12.7 ± 0.9 µM

Compound: Cc1ccc(NC(=O)NCCSCc2ccc(CN(C)C)o2)cc1Cl [CAP-1]
- Kd (N-terminal CA (N-CA)): ~800 µM

Compound: NYAD-41: SEQ ID NO:20, linear peptide corresponding to NYAD-36, used as control (ISFDELLDYYGESGS; Linear peptide NYAD-41)
- secondary structure by CD [3]: random nature

From US8937154B2, “Stabilized therapeutic small helical antiviral peptides” (priority 2006, dated 2015)
